# pEC50: −log10 of the molar value.
# Tested on: HMPV clinical isolate A2 strain TN 94-49
# Test: HMPV antiviral assay, Method 2 (LLC-MK2 cells with CP-100-356, ATP-Lite)
# Assay type: cell-based
# Conditions: human metapneumovirus, 168 h; hMPV A2 TN/94-49, LLC-MK2 cells with 4 μM CP-100-356, 7 days, ATP-Lite
# Method in brief: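 EC50 comes from a four-parameter fit of percent cell viability (ATP-Lite, normalized to virus-only and cell-only wells) after 7 days at 37 °C. Infection used HMPV A2 TN 94-49 at MOI 0.16 in LLC-MK2 cells, with 2 μM P-gp inhibitor CP-100-356 and 2 μg/mL TPCK-trypsin final; dose range 200 nM top, 2.5-fold, 10 points, duplicate.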
row,SMILES,pEC50
1,C[C@]1(C(N)=O)COc2c1cc([C@@](O)(CNC(=O)c1cc(OC3CC3)c3nn(C(F)F)cc3c1)C1CC1)nc2-n1ncc2c(F)cccc21 [Example 652],> 6.70
2,COc1nccc(-c2nc([C@@](O)(CNC(=O)c3cc(OC4CC4)c4nn(C(F)F)cc4c3)C(C)C)cc3c2OC[C@]3(C)C(N)=O)c1Cl [Example 894],< 6.70
3,COc1cc(-c2nc([C@@](O)(CNC(=O)c3cc(OC)c4nn(C5CC5)cc4c3)C(F)(F)F)cc3c2OC[C@]3(C)C(N)=O)c(Cl)cn1 [Example 835],< 6.70
4,COc1cc(C(=O)NC[C@](O)(c2cc3c(c(-n4ccc5c(F)cccc54)n2)OC[C@]3(C)C(N)=O)C(F)(F)F)cc2sc(N)nc12 [Example 691],> 6.70
5,COc1cc(C(=O)NC[C@](O)(c2cc3c(c(-c4cccc(C(=O)N(C)C)c4Cl)n2)OC[C@]3(C)C(N)=O)C2CC2)cc2cn(C3CC3)nc12 [Example 809],< 6.70

# Other lines, results leading:
row,pEC50,SMILES
1,< 6.70,COc1cc(C(=O)NC[C@](O)(c2cc3c(c(-n4ncc5c4CCCC5)n2)OC[C@]3(C)C(N)=O)C2CC2)cc2cn(C(F)F)nc12 [Example 641]
2,< 6.70,COc1cc(C(=O)NC[C@](O)(c2cc3c(c(-c4ccnc(C(C)C)c4Cl)n2)OC[C@]3(C)C(N)=O)C2CC2)cc2cn(C(F)F)nc12 [Example 907]
3,> 6.70,COc1cc(-c2nc([C@@](O)(CNC(=O)c3cc(OC)c4nc(C5CC5)oc4c3)c3ccccc3)cc3c2OC[C@]3(C)C(N)=O)c(F)cn1 [Example 638]
4,< 6.70,COc1cc(C(=O)NC[C@](O)(c2cc3c(c(-c4ccnc(C)c4Cl)n2)OC[C@]3(C)C(N)=O)C(F)(F)F)cc2cn(C3CC3)nc12 [Example 883]
5,> 6.70,COc1nccc(-c2nc([C@@](O)(CNC(=O)c3cc(OC4CC4)c4nn(C5(F)CC5)cc4c3)C3(F)CC3)cc3c2OC[C@]3(C)C(N)=O)c1Cl [Example 658]
6,> 6.70,COc1nccc(-c2nc([C@@](O)(CNC(=O)c3cc(OC)c4nn(C5(F)CC5)cc4c3)c3ccc(F)cc3)cc3c2OC[C@]3(C)C(N)=O)c1Cl [Example 697]
7,< 6.70,CC(C)c1nccc(-c2nc([C@@](O)(CNC(=O)c3cc(OC4CC4)c4nn(C5(F)CC5)cc4c3)C3CC3)cc3c2OC[C@]3(C)C(N)=O)c1Cl [Example 912]
8,> 6.70,COc1cc(C(=O)NC[C@](O)(c2cc3c(c(-c4ccnc(C(F)(F)F)c4Cl)n2)OC[C@]3(C)C(N)=O)C(F)(F)F)cc2cn(C(F)F)nc12 [Example 790]

# Same assay, conditions: human metapneumovirus; hMPV A2 TN/94-49, LLC-MK2 cells with CP-100-356, Method 2
row,SMILES,pEC50
1,CC(C)c1nc2ccc(C(=O)NC[C@@](O)(c3ccccc3)c3cc4c(c(-c5cc(Cl)c(F)cc5F)n3)OC[C@]4(C)C(N)=O)cc2o1 [Example 224],< 6.70
2,COc1cc(C(=O)NC[C@](O)(c2cc3c(c(-c4ccnc(C)c4F)n2)OC[C@]3(C)C(N)=O)C2CC2)cc2cn(C3CC3)nc12 [Example 428],> 6.70
3,COc1cc(C(=O)NC[C@](O)(c2cccc(F)c2)c2cc3c(c(-c4cc(F)c(F)cc4C(N)=O)n2)OC[C@]3(C)C(N)=O)cc2cn(C3(F)CC3)nc12 [Example 406],< 6.70
4,COc1cc(C(=O)NC[C@@](O)(c2ccccc2)c2cc3c(c(-c4cc(Cl)c(F)cc4F)n2)OC[C@]3(C)C(N)=O)cc2c1OCCC2 [Example 93],< 6.70
5,Cc1nc2ccc(C(=O)NC[C@@](O)(c3ccccc3)c3cc4c(c(-c5cc(F)c(F)cc5F)n3)OC[C@]4(C)C(N)=O)cc2o1 [Example 192],> 6.70
6,COc1nccc(-c2nc([C@@](O)(CNC(=O)c3cc(OC4CC4)c4nn(C(F)F)cc4c3)C3CC3)cc3c2OC[C@]3(C)C(N)=O)c1Cl [Example 591],> 6.70
7,COc1nccc(-c2nc([C@@](O)(CNC(=O)c3cc(OC4CC4)c4nn(C5(F)CC5)cc4c3)C(F)(F)F)cc3c2OC[C@]3(C)C(N)=O)c1Cl [Example 588],> 6.70
8,C[C@]1(C(N)=O)COc2c1cc([C@@](O)(CNC(=O)c1cc(OC3CC3)n3nc(C4CC4)cc3c1)C1CC1)nc2-c1cc(C(F)(F)F)c(F)cc1F [Example 328],> 6.70
9,COc1nccc(-c2nc([C@@](O)(CNC(=O)c3cc(OC)c4nn(C(F)F)cc4c3)c3ccccc3)cc3c2OC[C@]3(C)C(N)=O)c1Cl [Example 554],> 6.70
10,C[C@]1(C(N)=O)COc2c1cc([C@@](O)(CNC(=O)c1ccc3nc(C4CC4)oc3c1)c1ccccc1)nc2-c1cccc(Cl)c1Cl [Example 97],> 6.70
11,COc1cc(C(=O)NC[C@](O)(c2cc3c(c(-n4ccc5cnccc54)n2)OC[C@]3(C)C(N)=O)C2CC2)cc2cn(C3CC3)nc12 [Example 447],> 6.70
12,COc1cc(-c2nc([C@@](O)(CNC(=O)c3cc(OC)c4nn(C5CC5)cc4c3)C3CC3)cc3c2OC[C@]3(C)C(N)=O)c(F)cn1 [Example 388],> 6.70
13,COc1cc(C(=O)NC[C@@](O)(c2cccc(F)c2)c2cc3c(c(-c4cccc(Cl)c4Cl)n2)OC[C@]3(C)C(N)=O)cc2cc(C3CC3)nn12 [Example 336],> 6.70
14,COc1cc(C(=O)NC[C@@](O)(c2cccc(F)c2)c2cc3c(c(-c4ccnc(C(F)F)c4Cl)n2)OC[C@]3(C)C(N)=O)cc2cn(C3CC3)nc12 [Example 565],> 6.70
15,COc1nccc(-c2nc([C@@](O)(CNC(=O)c3cc(OC)c4nc(C5CC5)cn4c3)C3CC3)cc3c2OC[C@]3(C)C(N)=O)c1Cl [Example 583],> 6.70
16,[2H]c1nc2c(OC)cc(C(=O)NC[C@@](O)(c3ccccc3)c3cc4c(c(-c5cc(Cl)c(F)cc5F)n3)OC[C@]4(C)C(N)=O)cc2cc1Cl [Example 220],> 6.70
17,COc1cc(C(=O)NC[C@](O)(c2cc3c(c(-c4ccnc(Cl)c4C)n2)OC[C@]3(C)C(N)=O)C2CC2)cc2cn(C3CC3)nc12 [Example 427],> 6.70
18,C[C@]1(C(N)=O)COc2c1cc([C@@](O)(CNC(=O)c1ccc3nc(C(F)F)oc3c1)c1ccccc1)nc2-c1cc(Cl)c(F)cc1F [Example 222],< 6.70
19,COc1cc(C(=O)NC[C@](O)(c2cc3c(c(-c4ccnc(Cl)c4Cl)n2)OC[C@]3(C)C(N)=O)C2CC2)cc2cn(C3CC3)nc12 [Example 387],> 6.70
20,COc1cc(C(=O)NC[C@@](O)(c2ccccc2)c2cc3c(c(-c4cc(C(F)(F)F)ccc4F)n2)OC[C@]3(C)C(N)=O)cc2oc(C3CC3)nc12 [Example 332],> 6.70

# Other lines, results leading:
row,pEC50,SMILES
1,> 6.70,COc1cc(C(=O)NC[C@@](O)(c2ccc(F)cc2)c2cc3c(c(-c4ccnc(C(F)(F)F)c4F)n2)OC[C@]3(C)C(N)=O)cc2cn(C3(F)CC3)nc12 [Example 573]
2,> 6.70,COc1cc([C@](O)(CNC(=O)c2cc(OC)c3nn(C4CC4)cc3c2)c2cc3c(c(-c4cccc(Cl)c4Cl)n2)OC[C@]3(C)C(N)=O)cc(OC)n1 [Example 497]
3,< 6.70,C[C@]1(C(N)=O)COc2c1cc([C@@](O)(CNC(=O)c1ccc3nc(C4CC4)oc3c1)c1ccccc1)nc2-c1cc(C(F)(F)F)c(F)cc1F [Example 307]
4,> 6.70,COc1cc(C(=O)NC[C@@](O)(c2ccccc2)c2cc3c(c(-c4cc(C(F)F)c(F)cc4F)n2)OC[C@]3(C)C(N)=O)cc2cn(C(F)F)nc12 [Example 300]
5,> 6.70,COc1cc([C@](O)(CNC(=O)c2cc(OC)c3nn(C4CC4)cc3c2)c2cc3c(c(-c4cc(Cl)c(F)cc4F)n2)OC[C@]3(C)C(N)=O)cc(F)n1 [Example 503]
6,> 6.70,COc1cc(C(=O)NC[C@@](O)(c2cccc(F)c2)c2cc3c(c(-c4cccc(Cl)c4Cl)n2)OC[C@]3(C)C(N)=O)cc2cc(Cl)cnc12 [Example 333]
7,> 6.70,C[C@]1(C(N)=O)COc2c1cc([C@@](O)(CNC(=O)c1cc(OC3CC3)c3nn(C4CC4)cc3c1)C(F)(F)F)nc2-c1ccnc(C(F)(F)F)c1Cl [Example 593]
8,> 6.70,C[C@]1(C(N)=O)COc2c1cc([C@@](O)(CNC(=O)c1cc(OC3CC3)c3nn(C4CC4)cc3c1)c1ccccc1)nc2-c1cc(Cl)c(F)cc1F [Example 98]
9,> 6.70,C[C@]1(C(N)=O)COc2c1cc([C@@](O)(CNC(=O)c1cc(F)c3nn(C4CC4)cc3c1)c1ccccc1)nc2-c1cc(Cl)c(F)cc1F [Example 100]
10,> 6.70,C[C@]1(C(N)=O)COc2c1cc([C@@](O)(CNC(=O)c1cc(OC3CC3)c3ncc(Cl)cc3c1)c1ccccc1)nc2-c1cc(C(F)(F)F)c(F)cc1F [Example 315]
11,> 6.70,C[C@]1(C(N)=O)COc2c1cc([C@@](O)(CNC(=O)c1cc(Cl)c3nc(C4CC4)oc3c1)c1ccccc1)nc2-c1cc(Cl)c(F)cc1F [Example 232]
12,< 6.70,COc1cc(C(=O)NC[C@](O)(c2cc3c(c(-c4cc(Cl)c(F)cc4F)n2)OC[C@]3(C)C(N)=O)c2nccn2C)cc2cn(C3CC3)nc12 [Example 464]
13,> 6.70,COc1cc(C(=O)NC[C@](O)(c2cc3c(c(-c4c(F)cncc4Cl)n2)OC[C@]3(C)C(N)=O)C2CC2)cc2cn(C3CC3)nc12 [Example 434]
14,> 6.70,COc1nccc(-c2nc([C@@](O)(CNC(=O)c3cc(OC4CC4)n4nc(C5CC5)cc4c3)C3CC3)cc3c2OC[C@]3(C)C(N)=O)c1Cl [Example 606]
15,> 6.70,C[C@]1(C(N)=O)COc2c1cc([C@@](O)(CNC(=O)c1cc(C(F)(F)F)c3nn(C4CC4)cc3c1)c1ccccc1)nc2-c1cc(Cl)c(F)cc1F [Example 228]
16,> 6.70,C[C@]1(C(N)=O)COc2c1cc([C@@](O)(CNC(=O)c1cc(OC3CC3)c3ncc(Cl)cc3c1)c1ccccc1)nc2-c1ccc(F)c(Cl)c1Cl [Example 313]
17,> 6.70,COc1cc(C(=O)NC[C@@](O)(c2ccccc2)c2cc3c(c(-c4ccnc(F)c4Cl)n2)OC[C@]3(C)C(N)=O)cn2cc(C3CC3)nc12 [Example 359]
18,> 6.70,COc1cc(C(=O)NC[C@](O)(c2cc3c(c(-c4cc(F)ncc4Cl)n2)OC[C@]3(C)C(N)=O)C2CC2)cc2cn(C3CC3)nc12 [Example 384]
19,> 6.70,COc1nccc(-c2nc([C@@](O)(CNC(=O)c3cc(OC4CC4)c4nn(C5CC5)cc4c3)C(F)(F)F)cc3c2OC[C@]3(C)C(N)=O)c1Cl [Example 586]
